Assay results published in the kinase profiling compilation of Christmann-Franck et al. (2016).

Legend:
Experiment in all cases: radiometric filter-binding kinase assay, Kinase HotSpot
Conditions in all cases: compound 0.5 µM; ATP 10 µM
STK38 (human) = STK38 (human) (UniProt Q15208)
PRKACG (human) = PRKACG (human) (UniProt P22612)
MYO3B (human) = MYO3B (human) (UniProt Q8WXR4)
TLK2 (human) = TLK2 (human) (UniProt Q86UE8)
Chain of TLK2 (human) (Q86UE8 whole entry, looked up): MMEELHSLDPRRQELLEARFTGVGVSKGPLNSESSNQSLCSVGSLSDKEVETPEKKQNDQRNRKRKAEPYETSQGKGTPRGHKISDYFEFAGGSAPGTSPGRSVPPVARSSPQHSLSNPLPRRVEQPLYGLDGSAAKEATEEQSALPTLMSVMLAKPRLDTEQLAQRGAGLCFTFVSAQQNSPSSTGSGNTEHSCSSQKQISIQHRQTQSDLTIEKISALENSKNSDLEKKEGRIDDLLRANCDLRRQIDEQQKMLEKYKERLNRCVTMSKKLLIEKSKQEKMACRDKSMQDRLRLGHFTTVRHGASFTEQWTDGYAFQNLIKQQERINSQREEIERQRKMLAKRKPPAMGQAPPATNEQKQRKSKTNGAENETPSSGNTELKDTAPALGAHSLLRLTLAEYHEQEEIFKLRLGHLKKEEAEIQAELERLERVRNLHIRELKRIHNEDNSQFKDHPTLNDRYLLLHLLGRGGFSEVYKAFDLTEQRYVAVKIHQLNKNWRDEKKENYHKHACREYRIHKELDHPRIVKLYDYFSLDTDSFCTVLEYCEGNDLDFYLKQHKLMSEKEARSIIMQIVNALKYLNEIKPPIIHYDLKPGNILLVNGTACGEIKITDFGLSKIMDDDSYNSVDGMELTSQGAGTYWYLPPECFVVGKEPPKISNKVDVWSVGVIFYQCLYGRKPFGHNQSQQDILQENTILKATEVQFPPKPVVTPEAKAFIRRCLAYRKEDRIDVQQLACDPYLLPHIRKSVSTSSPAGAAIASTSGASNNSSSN

Chain of MYO3B (human) (Q8WXR4 whole entry, looked up): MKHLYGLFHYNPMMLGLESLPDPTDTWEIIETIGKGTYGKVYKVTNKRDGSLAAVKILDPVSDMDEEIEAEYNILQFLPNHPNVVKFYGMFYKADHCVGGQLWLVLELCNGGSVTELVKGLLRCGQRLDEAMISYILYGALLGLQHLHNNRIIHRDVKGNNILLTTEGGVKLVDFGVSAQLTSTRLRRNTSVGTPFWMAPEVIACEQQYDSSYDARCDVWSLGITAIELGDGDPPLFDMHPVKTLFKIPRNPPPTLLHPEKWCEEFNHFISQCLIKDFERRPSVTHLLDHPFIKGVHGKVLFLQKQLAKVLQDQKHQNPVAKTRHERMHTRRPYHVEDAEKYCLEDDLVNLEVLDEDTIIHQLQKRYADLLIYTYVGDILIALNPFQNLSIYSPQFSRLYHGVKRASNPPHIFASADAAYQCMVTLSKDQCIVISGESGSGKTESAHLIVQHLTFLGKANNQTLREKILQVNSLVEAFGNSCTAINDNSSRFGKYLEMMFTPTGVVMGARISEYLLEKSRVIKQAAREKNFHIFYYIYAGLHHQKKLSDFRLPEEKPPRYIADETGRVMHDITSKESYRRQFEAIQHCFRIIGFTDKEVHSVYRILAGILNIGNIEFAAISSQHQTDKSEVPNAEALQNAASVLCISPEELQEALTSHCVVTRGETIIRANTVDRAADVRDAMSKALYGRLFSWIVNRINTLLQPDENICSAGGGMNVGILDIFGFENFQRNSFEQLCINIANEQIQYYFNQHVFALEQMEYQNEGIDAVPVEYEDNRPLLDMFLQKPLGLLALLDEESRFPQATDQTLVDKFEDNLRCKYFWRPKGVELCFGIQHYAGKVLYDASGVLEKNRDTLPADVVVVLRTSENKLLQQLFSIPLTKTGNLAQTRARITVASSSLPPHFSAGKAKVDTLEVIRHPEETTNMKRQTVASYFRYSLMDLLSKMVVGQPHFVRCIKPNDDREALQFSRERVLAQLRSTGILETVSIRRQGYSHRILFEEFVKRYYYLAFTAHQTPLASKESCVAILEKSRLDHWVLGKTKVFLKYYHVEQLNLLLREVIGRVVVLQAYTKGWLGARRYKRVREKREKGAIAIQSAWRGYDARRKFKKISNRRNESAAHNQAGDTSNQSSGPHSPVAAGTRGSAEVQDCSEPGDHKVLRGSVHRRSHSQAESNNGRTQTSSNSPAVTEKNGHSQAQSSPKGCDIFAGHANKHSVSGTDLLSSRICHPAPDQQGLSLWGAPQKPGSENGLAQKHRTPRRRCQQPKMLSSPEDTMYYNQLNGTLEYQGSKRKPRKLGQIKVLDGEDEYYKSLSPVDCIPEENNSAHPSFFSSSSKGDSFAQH
Chain of STK38 (human) (Q15208 whole entry, looked up): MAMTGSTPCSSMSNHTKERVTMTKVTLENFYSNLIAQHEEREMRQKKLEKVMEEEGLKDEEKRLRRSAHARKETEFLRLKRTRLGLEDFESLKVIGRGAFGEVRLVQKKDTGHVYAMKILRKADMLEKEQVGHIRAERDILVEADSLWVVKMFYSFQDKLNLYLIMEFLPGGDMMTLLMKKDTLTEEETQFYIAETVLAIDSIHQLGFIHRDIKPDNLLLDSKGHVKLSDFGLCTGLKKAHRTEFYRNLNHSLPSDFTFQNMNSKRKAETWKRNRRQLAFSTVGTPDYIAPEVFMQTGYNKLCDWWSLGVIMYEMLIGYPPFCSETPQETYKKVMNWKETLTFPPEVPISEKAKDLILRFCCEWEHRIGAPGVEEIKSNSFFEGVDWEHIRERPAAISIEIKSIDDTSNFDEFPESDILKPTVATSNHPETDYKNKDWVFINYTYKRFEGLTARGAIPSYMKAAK
Chain of PRKACG (human) (P22612 whole entry, looked up): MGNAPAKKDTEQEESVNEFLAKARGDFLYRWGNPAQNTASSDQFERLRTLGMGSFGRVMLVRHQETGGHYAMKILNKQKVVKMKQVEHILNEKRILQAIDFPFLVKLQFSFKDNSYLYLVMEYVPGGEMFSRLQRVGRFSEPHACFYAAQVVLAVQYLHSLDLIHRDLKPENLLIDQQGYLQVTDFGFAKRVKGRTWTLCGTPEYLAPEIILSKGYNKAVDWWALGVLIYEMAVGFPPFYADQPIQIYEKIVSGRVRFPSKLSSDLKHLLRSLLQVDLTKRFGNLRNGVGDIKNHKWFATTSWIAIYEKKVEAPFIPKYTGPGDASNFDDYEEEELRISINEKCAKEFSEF

| Structure (SMILES) | residual activity (STK38 (human)) [%] | residual activity (PRKACG (human)) [%] | residual activity (MYO3B (human)) [%] | residual activity (TLK2 (human)) [%] |
| --- | --- | --- | --- | --- |
| CN(C)S(=O)(=O)c1ccc2c(c1)/C(=C/c1cc3c([nH]1)CCCC3)C(=O)N2 | 94.6 | 114 | 98.9 | 102 |
| CS(=O)(=O)CCNCc1ccc(-c2ccc3ncnc(Nc4ccc(OCc5cccc(F)c5)c(Cl)c4)c3c2)o1 | 101 | 110 | 96.1 | 83.9 |
| c1ccc2c(-c3ccncc3)c[nH]c2c1 | 109 | 107 | 96.4 | 95.8 |
| COc1ccc(S(=O)(=O)N(CCO)c2ccccc2CN(C)C/C=C/c2ccc(Cl)cc2)cc1 | 98.3 | 104 | 90.2 | 96.6 |
| Fc1ccc(-c2nc3n(c2-c2ccncc2)CCS3)cc1 | 88 | 116 | 102 | 94.7 |
| CO[C@@H]1[C@H](N(C)C(=O)c2ccccc2)C[C@H]2O[C@]1(C)n1c3ccccc3c3c4c(c5c6ccccc6n2c5c31)C(=O)NC4 | 83.8 | 58.1 | 53.7 | 75 |
| N#Cc1c[nH]c2c[nH]/c(=N\Cc3cccnc3)cc2/c1=N\c1ccc(F)c(Cl)c1 | 93.9 | 115 | 87.9 | 106 |
| Cc1cccc(-c2nc(C(C)(C)C)[nH]c2-c2ccc3c(c2)OCO3)n1 | 91.7 | 119 | 79.2 | 103 |
| COc1cc(Nc2c(C#N)cnc3cc(OCCCN4CCN(C)CC4)c(OC)cc23)c(Cl)cc1Cl | 85.1 | 99.2 | 40.3 | 92.2 |
| COc1cc2ncnc(Nc3ccc(Oc4ccccc4)cc3)c2cc1OC | 105 | 137 | 103 | 107 |
| O=C1Nc2ccc(Br)cc2/C1=C\c1cc2c([nH]1)CCCC2 | 80.1 | 98.1 | 55.1 | 101 |
| O=C1c2ccccc2-c2nc3nnnn3nc21 | 46.6 | 88.5 | 88.4 | 100 |
| O=C1C(Cl)=C(N2C(=O)CCC2=O)C(=O)c2ccccc21 | 102 | 95.1 | 112 | 117 |
| COc1ccc2c(c1)/C(=C/c1cnc[nH]1)C(O)=N2 | 86.2 | 110 | 88 |  |
| Cc1cncc2cccc(S(=O)(=O)N3CCCN(C(=O)CN)C[C@H]3C)c12 | 97.1 | 112 | 104 | 97.7 |
| Cc1nc(-c2ccccc2)c(-c2ccncc2)o1 | 97.3 | 108 | 108 | 110 |
| N#C/C(=C\c1ccc(O)c(O)c1)C(=O)NCc1ccccc1 | 99.1 | 90.7 | 88.3 | 105 |
| C[C@@H]1CCN(C(=O)CC#N)C[C@@H]1N(C)c1ncnc2[nH]ccc12 | 95.7 | 111 | 89.3 | 94.4 |
